From patent US20260176260A1, “DUAL RAF AND TUBULIN INHIBITORS AND METHODS OF USE THEREOF” (Deciphera Pharmaceuticals, LLC, priority 2023, published 2026)
Where two headings read alike, the source gives them in different places.

Experiments:
[1] = system: tubulin polymerization in HCT-116 cells; experiment: Cellular tubulin polymerization assay (pellet/supernatant a-tubulin, HCT-116 cells); assay type: cell-based
Procedure: HCT-116 cells (catalog #CCL-247) are obtained from the American Type Culture Collect (ATCC, Manassas, VA). Briefly, cells are grown in McCoy's 5A supplemented with 10% characterized fetal bovine serum (Invitrogen, Carlsbad, CA) and 1% Penicillin/Streptomycin/L-Glutamine at 37° C., 5% CO2, and 95% humidity. Cells are expanded until reaching 70-95% confluency at which point they are sub-cultured or harvested for assay use. 450000 cells are added per well in 1500 μL complete growth medium in a tissue culture treated, 12-well plate. Plates are incubated for 18 to 24 h at 37° C., 5% CO2, and 95% humidity. At the end of the incubation, 2000 μL of base culture media is added to each well, followed by a serial dilution of compound. Plates are incubated for an additional 1 h at 37° C., 5% CO2, and 95% humidity. Lysates are generated by the addition of 100 μL Lysis and Microtubule Stabilization Buffer 1 (LMS01, Cytoskeleton Inc, Denver, CO) supplemented with GTP (BST06, Cytoskeleton Inc), ATP (BSA04, Cytoskeleton Inc), and Protease Inhibitor Cocktail Stock (PIC02, Cytoskeleton Inc). Cells are scraped off wells using a rubber cell scraper and collected in a clean 96-well plate. Lysates are centrifuged at 1000×g, 37° C. for 10 min and supernatant fraction is placed into an additional 96-well plate. The remaining pellet fraction is reconstituted in 100 μL LMS01 buffer and sonicated for 10 min. Pellet and Supernatant fractions are probed for a-tubulin via western blot analysis on the Jess System or equivalent (Bio-techne, Minneapolis, MN). Data is analyzed using Prism software (Graphpad, San Diego, CA) to calculate IC50 values.

HPAF-II cells = experiment: HPAF-II cell proliferation assay (resazurin); assay type: cell-based; conditions: Homo sapiens
Procedure: (§1) HPAF-II cells (catalog #CRL-1997) are obtained from the American Type Culture Collect (ATCC, Manassas, VA). Briefly, cells are grown in Minimum Essential Media supplemented with 10% characterized fetal bovine serum (Invitrogen, Carlsbad, CA) and 1% Penicillin/Streptomycin/L-Glutamine at 37° C., 5% CO2, and 95% humidity. Cells are expanded until reaching 70-95% confluency at which point they are sub-cultured or harvested for assay use. A serial dilution of test compound is dispensed into a 384-well black clear bottom plate in triplicate. 750 cells are added per well in 50 μL complete growth medium in the 384-well plate. Plates are incubated for 115 to 120 h at 37° C., 5% CO2, and 95% humidity. At the end of the incubation, 40 μL of a […] solution of resazurin (Sigma, St. Louis, MO) in PBS is added to each well of the plate and plates are incubated for an additional 18 to 24 h at 37° C., 5% CO2, and 95% humidity. Plates are read on a Synergy2 or equivalent reader (Biotek, Winooski, VT) using an excitation of 540 nm and an emission of 600 nm. Data is analyzed using Prism software (Graphpad, San Diego, CA) to calculate IC50 values.

C-Raf kinase = target: T1, C-Raf kinase (Homo sapiens, UniProt P04049, Y340D/Y341D); experiment: Biochemical assay for C-Raf (coupled pyruvate kinase/lactate dehydrogenase)
T1 construct: C-Raf residues 306-end; Y340D, Y341D with N-; purchased Sigma
T1 sequence (P04049 307-648 Y340D/Y341D): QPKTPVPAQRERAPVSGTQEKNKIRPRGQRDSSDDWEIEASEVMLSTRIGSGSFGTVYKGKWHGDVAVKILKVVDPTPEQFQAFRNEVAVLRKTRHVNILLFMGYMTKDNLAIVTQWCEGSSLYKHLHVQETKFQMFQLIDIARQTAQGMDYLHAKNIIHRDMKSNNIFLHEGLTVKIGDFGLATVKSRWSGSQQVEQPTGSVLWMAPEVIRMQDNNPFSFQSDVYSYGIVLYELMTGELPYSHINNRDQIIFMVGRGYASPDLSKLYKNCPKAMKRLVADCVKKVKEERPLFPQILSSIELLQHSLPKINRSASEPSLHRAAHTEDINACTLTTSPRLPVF

Porcine Brain Tubulin = target: T2, Porcine Brain Tubulin (Sus scrofa, UniProt P02550+P02554); experiment: Biochemical tubulin polymerization assay
T2 construct: Porcine Brain Tubulin (T240); purchased Cytoskeleton, Inc T240; BK011P; host or cells: porcine brain
T2 sequence (P02550 whole entry): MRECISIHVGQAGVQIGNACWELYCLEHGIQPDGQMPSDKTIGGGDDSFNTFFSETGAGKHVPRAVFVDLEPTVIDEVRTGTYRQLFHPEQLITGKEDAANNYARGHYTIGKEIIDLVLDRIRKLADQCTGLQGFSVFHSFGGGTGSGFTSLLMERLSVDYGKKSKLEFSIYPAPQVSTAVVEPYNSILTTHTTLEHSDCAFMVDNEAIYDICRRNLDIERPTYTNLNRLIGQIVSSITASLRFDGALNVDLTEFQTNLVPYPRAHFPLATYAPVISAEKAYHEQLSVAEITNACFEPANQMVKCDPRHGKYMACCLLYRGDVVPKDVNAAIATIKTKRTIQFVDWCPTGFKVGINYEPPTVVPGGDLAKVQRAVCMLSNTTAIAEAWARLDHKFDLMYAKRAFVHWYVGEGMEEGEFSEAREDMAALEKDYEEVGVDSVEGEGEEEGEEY
T2 sequence (P02554 whole entry): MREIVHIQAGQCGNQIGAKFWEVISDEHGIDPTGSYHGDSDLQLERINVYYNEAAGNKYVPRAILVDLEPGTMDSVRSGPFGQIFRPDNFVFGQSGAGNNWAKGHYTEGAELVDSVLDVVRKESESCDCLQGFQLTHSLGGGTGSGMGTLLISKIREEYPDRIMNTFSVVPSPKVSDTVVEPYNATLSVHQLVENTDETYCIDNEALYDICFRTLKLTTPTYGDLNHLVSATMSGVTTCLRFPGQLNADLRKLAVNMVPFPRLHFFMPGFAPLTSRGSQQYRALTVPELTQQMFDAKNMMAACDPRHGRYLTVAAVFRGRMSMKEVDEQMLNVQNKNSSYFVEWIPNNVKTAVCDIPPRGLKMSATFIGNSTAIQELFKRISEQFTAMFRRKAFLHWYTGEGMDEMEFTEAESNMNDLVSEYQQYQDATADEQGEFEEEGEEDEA

HCT-116 cells = experiment: HCT-116 cell proliferation assay (resazurin); assay type: cell-based; conditions: Homo sapiens
Procedure: HCT-116 cells (catalog #CCL-247) are obtained from the American Type Culture Collect (ATCC, Manassas, VA). Briefly, cells are grown in McCoy's 5A supplemented with 10% characterized fetal bovine serum (Invitrogen, Carlsbad, CA) and 1% Penicillin/Streptomycin/L-Glutamine at 37° C., 5% CO2, and 95% humidity. Cells are expanded until reaching 70-95% confluency at which point they are sub-cultured or harvested for assay use. A serial dilution of test compound is dispensed into a 384-well black clear bottom plate in triplicate. 375 cells are added per well in 50 μL complete growth medium in the 384-well plate. Plates are incubated for 67 to 72 h at 37° C., 5% CO2, and 95% humidity. At the end of the incubation, 40 μL of a […] solution of resazurin (Sigma, St. Louis, MO) in PBS is added to each well of the plate and plates are incubated for an additional 4 to 5 h at 37° C., 5% CO2, and 95% humidity. Plates are read on a Synergy2 or equivalent reader (Biotek, Winooski, VT) using an excitation of 540 nm and an emission of 600 nm. Data is analyzed using Prism software (Graphpad, San Diego, CA) to calculate IC50 values.

MiaPaca-2 cells = experiment: MiaPaca-2 cell proliferation assay (resazurin); assay type: cell-based; conditions: Homo sapiens, MIA PaCa-2, read-out: MiaPaca-2
Procedure: MiaPaca-2 cells (catalog #CRL-1420) are obtained from the American Type Culture Collect (ATTC, Manassas, VA). Briefly, cells were grown in DMVEM supplemented with […] fetal bovine serum (Invitrogen, Carlsbad, CA), 2.5% New Zealand sourced horse serum and 1% Penicillin/Streptomycin/L-Glutamine at 37° C., […], and […]. Cells are expanded until reaching […] at which point they are sub-cultured or harvested for assay use. For assays completed in 96-well plates, a serial dilution of test compound is dispensed into a 96-well black clear bottom plate in triplicate. Three thousand cells are added per well in 200 μL complete growth medium in the 96-well plate. Plates are incubated for 67 to 72 h at 37° C., 5% CO2, and 95% humidity. At the end of the incubation, 40 μL of a […] solution of resazurin (Sigma, St. Louis, MO) in PBS is added to each well of the plate and plates are incubated for an additional 5 to 6 h at 37° C., 5% CO2, and 95% humidity. For 384-well assays, a threefold, 8-point serial dilution of compound was spotted column wise into a 384 well black, clear bottom, tissue culture treated plate using the Beckman Coulter Echo 650. Likewise, a threefold, 8-point serial dilution of cobimetinib was spotted row wise into the 384 well black, clear bottom plate containing compound. DMSO concentration was constant across all wells at 0.4%. Seven hundred fifty cells are added per well in 50 μL complete growth medium in each 384-well plate. Plates are incubated for 67 to 72 h at 37° C., 5% CO2, and 95% humidity. At the end of the incubation, 10 μL of a 440 μM solution of resazurin (Sigma, St. Louis, MO) in PBS is added to each well of the plate and plates are incubated for an additional 4 to 6 h at 37° C., 5% CO2, and 95% humidity. Plates are read on a Synergy2 or equivalent reader (Biotek, Winooski VT) using an excitation of 540 nm and an emission of 600 nm. Data is analyzed using Prism software (Graphpad, San Diego, CA) to calculate IC50 values.

B-Raf kinase = target: T3, B-Raf kinase (Homo sapiens, UniProt P15056); experiment: Biochemical assay for B-Raf (coupled pyruvate kinase/lactate dehydrogenase); conditions: Table 1, inhibition of biochemical activity; read-out: BRAF
T3 construct: purchased Sigma
T3 sequence (P15056 416-766): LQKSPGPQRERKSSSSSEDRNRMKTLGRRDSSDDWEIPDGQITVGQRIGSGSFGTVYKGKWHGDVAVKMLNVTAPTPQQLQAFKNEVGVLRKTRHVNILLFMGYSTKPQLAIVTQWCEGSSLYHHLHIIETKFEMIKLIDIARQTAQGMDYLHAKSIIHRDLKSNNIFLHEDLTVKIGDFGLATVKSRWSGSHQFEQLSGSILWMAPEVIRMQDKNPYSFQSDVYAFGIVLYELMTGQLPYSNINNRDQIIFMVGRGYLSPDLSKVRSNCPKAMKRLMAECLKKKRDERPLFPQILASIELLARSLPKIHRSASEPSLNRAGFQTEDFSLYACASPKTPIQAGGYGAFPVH

Pa16c cells = experiment: Pa16c cell proliferation assay (resazurin); assay type: cell-based; conditions: Table 2, inhibition of cell proliferation
Procedure: as §1, with “Pa16c” for “HPAF-II”, “cells” for “cells (catalog #CRL-1997)”, “Dr. Channing Der, University of North Carolina at Chapel Hill.” for “the American Type Culture Collect (ATCC, Manassas, VA).”, “Dulbecco's Modified Eagle Medium” for “Minimum Essential Media”, “67” for “115”, “72” for “120”

[2] = Table 2, inhibition of cell proliferation
[3] = Table 2, inhibition of cell proliferation, read-out: HPAF-II
[4] = Table 1, inhibition of biochemical activity, read-out: CRAF
[5] = Table 2, inhibition of cell proliferation, read-out: HCT-116

| SMILES | IC50 (B-Raf kinase) [µM] | IC50 (MiaPaca-2 cells; [2]) [µM] | IC50 (HPAF-II cells; [3]) [µM] | IC50 (C-Raf kinase; [4]) [µM] | IC50 (HCT-116 cells; [5]) [µM] | IC50 (Pa16c cells) [µM] | further results |
| --- | --- | --- | --- | --- | --- | --- | --- |
| CC(C)(C)c1[nH]cnc1/C=c1\[nH]c(=O)/c(=C/c2ccccc2)[nH]c1=O [plinabulin, reference compound] | – | – | – | – | – | – | IC50 ([1]; ratio of pellet to supernatant vs DMSO control, HCT-116 cells, read-out: IC50 of inhibition of tubulin polymerization, cellular tubulin assay (FIG. 2)): 0.005 µM |
| CNC(=O)c1cc(-c2cc(-c3cc(NC(=O)c4ccnc(C(C)(C)C#N)c4)c(F)cc3C)ccn2)ccn1 [reference compound] | – | – | – | – | – | – | IC50 (HPAF-II cells; HPAF-II, Table 4, read-out: HPAF-II IC50): 1 to 10 µM; IC50 (C-Raf kinase; Table 4, read-out: CRAF IC50): < 0.1 µM; IC50 (Porcine Brain Tubulin; Table 4, read-out: Tubulin Biochem IC50): > 100 µM; IC50 (HCT-116 cells; HCT-116, Table 4, read-out: HCT-116 IC50): 0.5 to 1 µM |
| Cc1ccc(NC(=O)N2CC[C@@H](CC(F)(F)F)C2)cc1-c1cc(N[C@H](C)CO)nc(N2CCOCC2)c1 [Exarafenib, reference compound] | – | – | – | – | – | – | IC50 (MiaPaca-2 cells; Table 5): 1 to 10 µM; IC50 (HPAF-II cells; Table 5, read-out: HPAF-II): 1 to 10 µM; IC50 (HCT-116 cells; Table 5, read-out: HCT-116): 0.5 to 1 µM; IC50 ([1]; Table 5, HCT-116 cells, read-out: Tubulin Cellular): 1 to 10 µM |
| CNC(=O)c1cc(-c2cc(-c3cc(NC(=O)c4cc(C(C)(F)F)cnn4)ccc3C)cc(N[C@H](C)CO)n2)ccn1 [Example 38] | < 0.1 | 0.1 to 0.5 | 0.1 to 0.5 | < 0.1 | 0.1 to 0.5 | 0.1 to 0.5 | – |
| CNC(=O)c1cc(-c2cc(-c3cc(NC(=O)c4cc(C#N)cnn4)ccc3C)cc(OCCO)n2)ccn1 [Example 49] | < 0.1 | 0.5 to 1 | 0.5 to 1 | < 0.1 | 0.5 to 1 | < 0.1 | – |
| CNC(=O)c1cc(-c2cncc(-c3cc(NC(=O)c4cc(C5CC5)cnn4)ccc3C)c2)ncn1 [Example 24] | < 0.1 | 1 to 10 | 1 to 10 | < 0.1 | 1 to 10 | 1 to 10 | – |
| CCCS(=O)(=O)Nc1ccc(F)c(C(=O)c2c[nH]c3ncc(-c4ccc(Cl)cc4)cc23)c1F [Vemurafenib, reference compound] | – | – | – | – | – | – | IC50 (MiaPaca-2 cells; Table 5): 1 to 10 µM; IC50 (HPAF-II cells; Table 5, read-out: HPAF-II): 1 to 10 µM; IC50 (Porcine Brain Tubulin; Table 5, read-out: Tubulin Biochem): > 100 µM; IC50 (HCT-116 cells; Table 5, read-out: HCT-116): 1 to 10 µM |
| CNC(=O)c1cc(-c2cc(-c3cc(NC(=O)c4cc(C5CC5)cnn4)ccc3C)cc(OCCO)n2)ccn1 [Example 34] | < 0.1 | 0.5 to 1 | 0.5 to 1 | < 0.1 | 0.1 to 0.5 | 0.1 to 0.5 | – |
| CNC(=O)c1cc(-c2cc(-c3cc(NC(=N)c4cc(C5CC5)cnn4)ccc3C)ccn2)ccn1 [Example 21] | 0.5 to 1 | 1 to 10 | 1 to 10 | 0.1 to 0.5 | 1 to 10 | 1 to 10 | – |
| CNC(=O)c1cc(-c2nc(N[C@H](C)CO)cc(-c3cc(NC(=O)c4cc(C(F)(F)F)cnn4)ccc3C)n2)ccn1 [Example 28] | < 0.1 | 1 to 10 | 1 to 10 | < 0.1 | 1 to 10 | 1 to 10 | – |
| CNC(=O)c1cc(-c2cc(-c3cc(NC(=O)c4cc(C(F)(F)F)cnn4)ccc3C)cc(N)n2)ccn1 [Example 48] | < 0.1 | 0.5 to 1 | 0.1 to 0.5 | < 0.1 | 0.1 to 0.5 | 1 to 10 | – |
| CNC(=O)c1cc(-c2cncc(-c3cc(NC(=O)c4cc(C(F)(F)F)cnn4)ccc3C)c2)ncn1 [Example 17] | 0.1 to 0.5 | 1 to 10 | 1 to 10 | 0.1 to 0.5 | 1 to 10 | 1 to 10 | – |
| CNC(=O)c1cc(-c2nc(NCCO)cc(-c3cc(NC(=O)c4cc(C(F)(F)F)cnn4)ccc3C)n2)ccn1 [Example 23] | < 0.1 | 1 to 10 | 1 to 10 | < 0.1 | 0.5 to 1 | 1 to 10 | – |
| CNC(=O)c1cc(-c2cc(-c3cc(NC(=O)c4cncc(C(F)(F)F)c4)ccc3C)ccn2)ccn1 [Example 12] | < 0.1 | 1 to 10 | 1 to 10 | < 0.1 | 1 to 10 | 1 to 10 | – |
